Results on 14 compounds are retold here after paper PMC12434308 (Nature chemical biology, 2021).

Assay [1] relates to ACE2+ HEK293 cells. The experiment in a line: SNA and PNA lectin staining by flow cytometry. Type of assay: cell-based. To be noted: 3 d treatment, 300 μM. (In general: Flow cytometry measures light scatter and fluorescence of single cells or particles in a stream.)
Assay [2] deals with ACE2+ HEK293 cells. The assay is described as follows: fluorescent SARS-CoV-2 RBD trimer binding by flow cytometry. The assay is classed as cell-based.
The test system of assay [3] is SARS-CoV-2 pseudotyped lentivirus. The assay is classed as cell-based.
The next assay relates to Vero-E6 cells. The assay is classed as cell-based.
Another assay concerns ACE2. The assay is described as follows: anti-ACE2 antibody staining by flow cytometry. The assay is classed as cell-based, human. Particulars: ACE2+ HEK293 cells, 3FNeu5Ac treatment.
A further assay concerns control lentivirus. Type of assay: cell-based.
Another assay has as its target SARS-CoV-2 S1 protein. Particulars: model sialylated species; cited from earlier work.
For assay [4], the target named is T1, SARS-CoV-2 RBD (Severe acute respiratory syndrome coronavirus 2, UniProt P0DTC2).
Another assay concerns the target RBD. To be noted: read-out: Kd for the RBD; glycan immobilized, average MW 15,700 Da; cited from earlier work.
The subject of assay [5] is ferret lung tissue sections.
Assay [6] deals with T1, SARS-CoV-2 RBD. This is another data set of the same source.
Another assay addresses SARS-CoV-2 S protein (Severe acute respiratory syndrome coronavirus 2, UniProt P0DTC2).

On to `CC(=O)N[C@H]1[C@H]([C@H](O)[C@H](O)CO)O[C@](O)(C(=O)O)C(F)[C@@H]1O` (some centres unmarked) [3FNeu5Ac], for which the “Sia on the cell surface (SNA and PNA staining)” value with ACE2+ HEK293 cells [1] is listed as “substantially decreased”. For the same compound, in the assay with ACE2+ HEK293 cells [2] (300 μM, 72 h), the “RBD binding to treated cells” value is reported as “consistently decreased”. Besides, the “decrease in pseudotyped lentivirus infectivity” value in [3] is on record as 30–40%. Besides, in the assay on Vero-E6 cells, the “RBD binding to treated Vero-E6 cells” value was “decrease in RBD binding”. For the same compound, in the assay with ACE2, the “ACE2 levels after ST inhibition” value was “did not alter”. The “viral entry of control lentivirus” value in the assay with control lentivirus is “no differences were observed”. Turning to `CC(=O)N[C@H]1[C@H]([C@H](O)[C@H](O)CO)O[C@@](O[C@H]2[C@@H](O)[C@@H](CO)O[C@@H](O[C@H]3[C@H](O)[C@@H](O)C(O)O[C@@H]3CO)[C@@H]2O)(C(=O)O)C[C@@H]1O` (some centres unmarked) [3′-sialyllactose], the dissociation constant Kd result at SARS-CoV-2 S1 protein was “millimolar”. Take `CCCCCCCCC(=O)N[C@H](CN1CCCC1)[C@H](O)c1ccc2c(c1)OCCO2` [GENZ-123346]: the “SARS-CoV-2 RBD binding to glycolipid-depleted cells” value in the assay on ACE2+ HEK293 cells [2] (5 μM, 48 h) is on record as “significant decreases”. Also, in assay [3], the “pseudotyped viral infection of glycolipid-depleted cells” value was “significant decreases” and the pseudoviral entry result is listed as “failed to elicit an effect”. For the same compound, in the assay on control lentivirus, the “infection of control lentivirus” value is “did not show differences”.

Regarding `COC1(C(=O)O)CC(O)C(NC(C)=O)C(C(O)C(O)CO)O1` (stereo not drawn) [MeαNeu5Ac, methyl α-sialoside], on SARS-CoV-2 RBD [4], the “relative abundance of released 69 on addition of competitor” value is “qualitatively similar results as 41”.

As to “Galα(1-3)[Fucα(1-2)]Galβ(1-4)[Fucα(1-3)]Glc [glycan 87]”, the “ligand released from RBD in presence of excess MeαNeu5Ac” value on SARS-CoV-2 RBD [4] is recorded as “most abundant ligand released”. For heparin, the dissociation constant (Kd) at RBD was 1 µM.

For the compound neuraminidase from Vibrio cholerae, the “decrease of SARS-CoV-2 RBD binding” value (in the assay on Vero-E6 cells; in [5]) was approximately 80% throughout. Regarding “α-D-Neu5Ac-(2→3)-β-D-Gal-(1→3)-β-D-GalNAc-(1→4)-[α-D-Neu5Ac-(2→3)]-β-D-Gal-(1→4)-β-D-Glc-ceramide [GD1a]”, at SARS-CoV-2 RBD [6], the “ganglioside ions released from RBD complexes (nanodisc)” value (“ganglioside ions released” below) was “no signals”. Consider “α-D-Neu5Ac-(2→3)-β-D-Gal-(1→4)-β-D-Glc-ceramide [GM3]”, for which, at SARS-CoV-2 RBD [6], the “ganglioside ions released” value is “measured”.

As to α-Gal-Lewis X [glycan 50], the “relative CaR-ESI-MS response of ligand released from S protein” value on SARS-CoV-2 S protein is given as “enhanced”. On to “α-Neu5Ac-(2→3)-β-D-Gal-(1→3)-β-D-GalNAc-(1→4)-[α-Neu5Ac-(2→8)-α-Neu5Ac-(2→3)]-β-D-Gal-(1→4)-β-D-Glc-ceramide [GT1b]”, for which the “ganglioside ions released” value at SARS-CoV-2 RBD [6] is given as “no signals”. The same measure, in the same setting: next, “β-D-Gal-(1→3)-β-D-GalNAc-(1→4)-[α-D-Neu5Ac-(2→3)]-β-D-Gal-(1→4)-β-D-Glc-ceramide [GM1]”: “measured”; “β-D-GalNAc-(1→4)-[α-D-Neu5Ac-(2→3)]-β-D-Gal-(1→4)-β-D-Glc-ceramide [GM2]”: “measured”; “β-D-GalNAc-(1→4)-[α-D-Neu5Ac-(2→8)-α-D-Neu5Ac-(2→3)]-β-D-Gal-(1→4)-β-D-Glc-ceramide [GD2]”: “no signals”.

One may read the Kd as the equilibrium constant for the complex coming apart.
